Results on four molecules are retold here after patent US12054526B2, “Polypeptides, nucleic acid molecules, compositions, and related methods” (CHILDREN'S HOSPITAL MEDICAL CENTER, priority 2018, dated 2024).

Entries after “also recorded” stand apart in the source; their conditions may differ.

Assay [1] deals with Myomaker^−/− C2C12 cells. The assay is described as follows: Synchronized fusion assay (LPC), Myomaker^−/− C2C12. It is filed as cell-based. The conditions noted are these: 50 μM CPZ 60 seconds at LPC removal, assayed after 30 minutes.
Method: We labeled C2C12 cells 48 hours after placement in the differentiation medium, and co-plated differently labeled cells in a 1-to-1 ratio. […] Fusion was scored 30 min after LPC removal and thus −68 hours after placing the cells into differentiation medium. […] We kept the cells in LPC-supplemented differentiation medium for 16 hours, washed out LPC with LPC-free medium and 30 minutes later (˜24 hours after placing the cells into differentiation medium) scored fusion.
Formation of multinucleated myotubes was quantified as the percentage of cell nuclei present in myotubes normalized to the total number of cell nuclei. Hemifusion and fusion pore opening were quantified as a number of double-labeled mononucleated cells normalized to the total number of cell nuclei in the field. […]
Assay [2] concerns WT C2C12 myoblasts. The assay is described as follows: Synchronized fusion assay (LPC), WT C2C12. Format: cell-based. The following applies: 50 μM CPZ 60 seconds at LPC removal, assayed after 30 minutes. From the text:
(§1) We uncoupled the myoblast fusion stage of myogenic differentiation from the stages that prepare the cells for fusion using a fusion-synchronization approach described previously (GAMAGE et al. (2017) “Insights into the localization and function of myomaker during myoblast fusion” J Biol Chem, Vol. 292, pp. 17272-17289, which is herein incorporated by reference in its entirety; LEIKINA et al. (2013) “Extracellular annexins and dynamin are important for sequential steps in myoblast fusion” J Cell Biol, Vol. 200, pp. 109-123, which is herein incorporated by reference in its entirety). In brief, fusion-committed myoblasts were placed into complete medium supplemented with 150 μM lauroyl LPC (#855475P, Avanti Polar Lipids). 16 h later we washed the cells three times with LPC-free complete medium. […]
(§2) We labeled C2C12 cells 48 hours after placement in the differentiation medium, and co-plated differently labeled cells in a 1-to-1 ratio. […] Fusion was scored 30 min after LPC removal and thus […] after placing the cells into differentiation medium. […] We kept the cells in LPC-supplemented differentiation medium for 16 hours, washed out LPC with LPC-free medium and 30 minutes later (˜24 hours after placing the cells into differentiation medium) scored fusion. […]

Assay [3] concerns Myomerger^−/− C2C12 myoblasts. Kind of assay: Synchronized fusion assay (LPC), Myomerger^−/− C2C12. The following applies: 50 μM CPZ 60 seconds at LPC removal, assayed after 30 minutes. Format: cell-based.
From the text: as §1, §2

For assay [4], the system named is primary myoblasts. Kind of assay: Myoblast fusion assay, Myomerger-deficient primary myoblasts. It is filed as cell-based, mouse. The conditions noted are these: 0.06% OG in PBS 30 minutes. An excerpt: (§3) To specifically characterize different steps in fusion, we used 3 distinct assays: (i) hemifusion between cells labeled with membrane probe and content probe with unlabeled cells where hemifusion was detected as the appearance of lipid-labeled mononucleated cells without the content probe (FIG. 1A, FIG. 2A, FIG. 1E)); (ii) opening of a fusion pore in fusion between cells labeled with green cell tracker and cells labeled with orange cell tracker was detected as appearance of double-labeled cells (FIG. 1F); and (iii) fusion completion was detected as formation of multinucleated cells. […] Formation of multinucleated myotubes was quantified as the percentage of cell nuclei present in myotubes normalized to the total number of cell nuclei. Hemifusion and fusion pore opening were quantified as a number of double-labeled mononucleated cells normalized to the total number of cell nuclei in the field. For each condition, ≥8 randomly chosen fields of view were imaged. We also analyzed fusion by assessing the number of nuclei in myosin^+ cells. […] Samples were imaged with a Nikon Eclipse inverted microscope with AIR confocal running NIS Elements and images were analyzed with Fiji (SCHINDELIN et al. (2012) “Fiji: an open-source platform for biological-image analysis” Nat Methods, Vol. 9, pp. 676-682, which is herein incorporated by reference in its entirety) […]

Assay [5] relates to C2C12 myoblasts. Kind of assay: Myoblast fusion assay, WT myoblasts. It is filed as cell-based.
From the text: as §3

Assay [6] concerns Myomerger^−/− C2C12 myoblasts. The assay is described as follows: Myoblast fusion assay (myosin+ cells, nuclei count), Myomerger-deficient myoblasts. Format: cell-based. An excerpt: To specifically characterize different steps in fusion, we used 3 distinct assays: (i) hemifusion between cells labeled with membrane probe and content probe with unlabeled cells where hemifusion was detected as the appearance of lipid-labeled mononucleated cells without the content probe (FIG. 1A, FIG. 2A, FIG. 1E)); (ii) opening of a fusion pore in fusion between cells labeled with green cell tracker and cells labeled with orange cell tracker was detected as appearance of double-labeled cells (FIG. 1F); and (iii) fusion completion was detected as formation of multinucleated cells. […] Formation of multinucleated myotubes was quantified as the percentage of cell nuclei present in myotubes normalized to the total number of cell nuclei. Hemifusion and fusion pore opening were quantified as a number of double-labeled mononucleated cells normalized to the total number of cell nuclei in the field. For each condition, ≥8 randomly chosen fields of view were imaged. We also analyzed fusion by assessing the number of nuclei in myosin^+ cells. Here, cells were fixed with 4% paraformaldehyde (PFA)/PBS, permeabilized with 0.02% Triton X-100/PBS, and blocked with 3% BSA/PBS followed by immunostaining with myosin antibodies (MF 20, Developmental Studies Hybridoma Bank, 1:40) for one hour at room temperature. Alexa-Fluor secondary antibody (Invitrogen, 1:250) was incubated for 30 minutes at room temperature. Nuclei were stained with Hoechst (Invitrogen). Samples were imaged with a Nikon Eclipse inverted microscope with AIR confocal running NIS Elements and images were analyzed with Fiji (SCHINDELIN et al. (2012) “Fiji: an open-source platform for biological-image analysis” Nat Methods, Vol. 9, pp. 676-682, which is herein incorporated by reference in its entirety)
For detergent and recombinant protein application, 2.5×10^4 myoblasts per well of an 8-well μ-slide (Ibidi) were differentiated for 72 hours. 0.06% Octyl-β-Glucoside (OG) (Anatrace) in differentiation media was incubated for 30 minutes at 37° C. Cells were washed with PBS and switched back to normal differentiation media for 5 hours. For primary myoblasts, 3×10^4 cells were plated per well of an 8-well μ-slide (Ibidi) coated with fibronectin (Sigma-Aldrich, 5 μg/cm^2) and differentiated for 36 hours. Cells were treated with 0.06% OG in PBS for 30 minutes at 37° C., washed with PBS and switched back to normal differentiation media for 2 hours. For recombinant proteins, cells were treated with various concentrations of rMBP or rMBP-Myomerger^26-84 (0.5 μM, 1.25 μM, 3 μM, 6.25 μM and 12.5 μM), or 6.25 μM of Magainin 2 (AnaSpec), in differentiation media for 20 hours at 37° C.

For assay [7], the system named is Myomaker^−/− C2C12 myoblasts. Kind of assay: Myoblast fusion assay (myosin+ cells, nuclei count), Myomaker-deficient myoblasts. It is filed as cell-based.
From the text: as §3

Assay [8] relates to mouse Red Blood Cells (RBCs). Kind of assay: Red blood cell hemolysis (spectrophotometer). The following applies: Myomerger ectodomain at 25 μM. Format: cell-based. The procedure: Myomerger ectodomain (amino acids 26-84) was added to mouse Red Blood Cells (RBCs) and hemolysis was measured using a spectrophotometer (FIG. 9).
The test system of assay [9] is Escherichia coli (E. coli). Kind of assay: Bactericidal assay, colony forming units. Format: cell-based. The conditions noted are these: 25 μM, 2 hours. As to the method:
(§4) Gram-positive bacteria Listeria monocytogenes (Lm) and gram-negative bacteria Escherichia coli (E. coli) were treated with 25 μM recombinant Myomerger ectodomain (labeled as “protein” in FIG. 8) for 2 hours.

The test system of assay [10] is Listeria monocytogenes (Lm). Kind of assay: Bactericidal assay, colony forming units. Format: cell-based. The conditions noted are these: 25 μM, 2 hours. The procedure: as §4
Setting [11] is: 0.06% OG 30 minutes on day 3 of differentiation, fusion assessed 5 hours after treatment.
The mark [12] stands for this setting: 6.25 μM Magainin 2, 20 hours on day 3 of differentiation.

Consider `CN(C)CCCN1c2ccccc2Sc2ccc(Cl)cc21` [CPZ, chlorpromazine], for which the “fusion (syncytium formation)” value in assay [1] is “No fusion was observed”; in assay [2] it was “little effect”; in [3], “reached fusion levels observed for WT myoblasts”.
As to `CCCCCCCCO[C@@H]1O[C@H](CO)[C@@H](O)[C@H](O)[C@H]1O` [OG, Octyl-β-Glucoside], the fusion entry in [4] was “compensate for loss of Myomerger”; in assay [5] (OG treatment), “did not have an effect”; in assay [6] (setting [11]), “obvious fusion events; also recorded: induced fusion”; in assay [7] (setting [11]), “did not fuse”. In assay [6] (OG treatment), the “percentage of myosin+ cells with 3 or ≥4 nuclei” value is listed as “increased the percentage of cells with 3 nuclei but also induced formation of myotubes with ≥4 nuclei”.
Regarding Magainin 2 [Mag2], the fusion result in assay [5] (Mag2 treatment) was “did not have an effect”; in assay [6] (setting [12]), “partially rescued fusion; also recorded: induced myotube formation”; in assay [7] (setting [12]) it was “had no effect”. Moreover, the “percentage of myosin+ cells with 3 or ≥4 nuclei” value in [6] (Mag2 treatment) is listed as “increased the percentage of cells with 3 nuclei but also induced formation of myotubes with ≥4 nuclei”. The hemolysis result in [8] is “no measurable effect”.

B1: Myomerger ectodomain: recombinant Myomerger ectodomain (amino acids 26-84) used in Example Set B (protein)
chain: MPVPLLPMVLRSLLSRLLLPVARLARQHLLPLLRRLARRLSSQDMREALLSCLLFVLSQQQPPDSGEASRVDHSQRKERLGPQK
Consider B1, for which the “growth (colony forming units)” value in assay [9] and in [10] was “disrupts the growth” throughout. Also, the “effect on Lm compared to E. coli” value in [10] (gram-positive vs gram-negative) is “more of an effect”. Further, in [8], the hemolysis entry is recorded as “induced lysis”.
